# From patent US8349297B2, “Topical formulations” (Medpharm Limited, priority 2005, dated 2013)
# Legend:
# [1] = Phase diagram construction with visual solubility assessment
# Experimental: Formulations were prepared by the sequential weighing of the drug followed by the remaining excipients into a 10 mL PET glass coated canister. A magnetic stirrer bar was added and the formulations were crimped with a 100 μL valve. The formulations were allowed to shake for approximately 16 h at room temperature prior to the addition of HFA, and then shaken for a further 8 h prior to visual solubility assessment.
# [2] = Solubility studies in PET canisters (clarity observed, ternary phase plot); type: physicochemical
# Experimental: Solubility studies were conducted in clear, PET canisters. Stir bars were added to the canister and the canister was tared on an analytical balance. […] Lids were placed on the canisters and crimped. The solutions were left to stir overnight. […] All percentages are based on weight/weight calculations.
# [3] = Stability of BMV in the skin permeation system; type: physicochemical; settings: at both 4° C. and 37° C.
# Experimental: Stratum corneum was isolated from a frozen human skin sample using standard protocol. The prepared skin was mounted on a filter support and placed on the receiver section of an upright Franz cell. The donor compartment was then fixed on top of the receiver compartment and secured using Parafilm. A magnetic flea and thermostatically regulated receiver fluid (90:10 Acetate Buffer pH=4.5:EtOH) were added to each Franz cell. These cells were placed in a bath at 37° C. and allowed to equilibrate and after a few hours a blank sample was taken from each cell. The integrity of each cell was determined via inversion and an appropriate amount of formulation was applied to the donor chamber of the Franz cell. […] Samples were held at room temperature until HPLC analysis.
smiles,measurement,setting,value
O=C(O)c1ccccc1O [salicylic acid],drug level at which a saturated system could be formed,"[1]; 83% HFA, ethanol level varied, co-povidone S-630",2%
"CCCCC(=O)O[C@]1(C(=O)CO)[C@@H](C)C[C@H]2[C@@H]3CCC4=CC(=O)C=C[C@]4(C)[C@@]3(F)[C@@H](O)C[C@@]21C [BMV, betamethasone valerate]",PVP level at which the drug becomes insoluble,[2],around 3 % PVP
same,maximum solubility,[2],1-1.2%
same,time for which BMV was shown to be stable in the system,[3],up to 72 h
"O=C(OOC(=O)c1ccccc1)c1ccccc1 [BPO, Benzoyl peroxide]",drug level at which a saturated system could be formed,"[1]; 10% ethanol, PVP K90",1%
